“Also recorded” adds a separate entry of the source. Side chains are listed from the residue outwards. Ends that are not written are not given here.
Columns and labels:
Listeria monocytogenes = test: Protection against L. monocytogenes challenge (colony forming units in liver); type: in vivo; details: 9 nmol subcutaneously, i.v. challenge 28 days after priming, CFU in liver; relative to non-lipidated peptide or PBS
Text: FIG. 12 is a graphical representation showing enhanced protection against L. monocytogenes infection for mice immunized with the lipopeptide designated [P25]-Lys(Pam2Cys-Ser-Ser)-[LLO91-99] in FIG. 2 (based upon SEQ ID NO: 175). Five 5 BALB/c mice were inoculated intravenously with 1,000 bacteria (column 1), or immunized subcutaneously with PBS (column 2) or 9 nmol [P25]-Lys(Pam2Cys-Ser-Ser)-[LLO91-99] peptide (column 3) or 9 nmol non-lipidated [P25]-Lys-[LLO091-99] peptide (SEQ ID NO: 175; column 4), as indicated on the x-axis. Mice were challenged with whole bacteria and the number of colony forming units present in liver was measured 28 days post-challenge (ordinate).
Listeria monocytogenes EGD was cultured overnight at 37° C. on Horse Blood Agar (HBA) plates. The bacteria were washed off the plates using sterile PBS and the concentration adjusted to 5×10^3 Listeria cells/ml. Balb/c mice were infected intravenously with 1×10^3 Listeria cells. The dose was checked retrospectively by plating serial 10-fold dilutions on HBA plates.
Mice immunized s.c. with 9 nmol peptide immunogen or PBS, or i.v. with 1000 bacteria, were challenged by i.v. injection with bacteria 28 days after priming and the number of colony forming units of bacteria present in the liver determined 28 days after challenge.

splenocytes = test: IFN-gamma producing splenocytes after immunization with L. monocytogenes CTL epitope peptides; type: in vivo, BALB/c mice; details: 9 nmoles subcutaneously, in vitro stimulation with CTL epitope, day 28
Text: FIG. 11 is a graphical representation showing induction of interferon-gamma producing cells by lipopeptide. Peptide comprising a T-helper epitope and a CTL epitope of Listeria monocytogenes linked via the epsilon amino group of an internal lysine residue positioned between said epitopes to Pam2Cys (i.e. the peptide [P25]-Lys(Pam2Cys-Ser-Ser)-[LLO91-99] listed in FIG. 2 and based upon SEQ ID NO: 175), or lipopeptide(s) based on this structure in which Pam2Cys was linked through the epsilon amino group of said lysine, were used to inoculate mice. […] Splenocytes were obtained from the immunized animals and stimulated in vitro with either the isolated CTL epitope having the sequence set forth in SEQ ID NO: 172 (open bars) or no antigen (filled bars), and the number of (IFN-gamma) producing cells present was measured 28 days later. […]
5 BALB/c mice were inoculated with 9 nmoles of non-lipidated peptide ([P25]-Lys-[LLO91-99]), or lipidated peptide ([P25]-Lys(Pam2Cys-Ser-Ser)-[LLO91-99]) in which lipid was attached between the two epitopes at the approximate centre of the molecule, or with 1000 bacteria. […] The number of interferon-γ producing cells present in spleen was measured on day 28 following in vitro stimulation with the CTL epitope or no antigen. […]

For “[P25]-Lys(Pam2Cys-Ser-Ser)-[LLO91-99]: peptide [P25]-Lys-[LLO91-99] and a lipid of the Formula (IV) conjugated to the epsilon-amino group of the internal lysine (KLIPNASLIENCTKAELK([Ser-Ser-Pam2Cys])GYKDGNEYI)”, the “protection against challenge with whole bacteria” value (Listeria monocytogenes) was “successfully provides protection; also recorded: significantly enhanced protection” and the “IFN-γ producing cells per million splenocytes relative to non-lipidated peptide or PBS control” value (splenocytes) was “about 15 fold”.

From US7833532B2, “Immunogenic lipopeptides comprising T-helper and cytotoxic T lymphocyte (CTL) epitopes” (The Council of The Queensland Institute of Medical Research, priority 2002, dated 2010)
